In data set [1] the target is Glutamate NMDA receptor (Mus musculus) (UniProt P35436+Q91ZU9+Q03391+P35438+Q01097+Q01098+A2AIR5). Description: Positive allosteric modulation of C57BL/6 mouse NMDA receptor assessed as fold change in compound potentiated NMDA-induced current relative to NMDA current alone at 30 uM measured after 15 to 30 mins by patch-clamp method. Format: tissue-based. As to conditions: Brain, filed as positive allosteric modulator, time 15-30 min. (The patch-clamp technique gives a direct electrical read-out from membranes.)

Data set [2] in a line: Brain to blood partition coefficient of the compound. Format: physicochemical, tissue-based. As to conditions: read-out: logBB (converted).
The next data set relates to Mus musculus. The data set is described as follows: Antidepressant activity in ICR mouse aassessed as inhibition of apomorphine-induced climbing behaviour at 10 mg/kg, ip administered prior to APO challenge and measured after 30 mins. Format: functional, organism-based.

Active and inactive are the calls of the source. The rule behind the calls is not given here.

On to `Cc1cc(C)n(Cc2ccc(C(=O)Nc3ccc(Br)cc3C)s2)n1`, for which, in data set [1], the fold change (FC) worked out at 1.5. The Kp in data set [2] was 1.26.

As to `O=C(Nc1ccc(Cl)cc1Cl)c1ccc(Cn2nc(C(F)(F)F)cc2C(F)(F)F)o1`, the fold change (FC) in data set [1] stood at 0.4. The Kp in data set [2] is 3.98. In the case of `Cc1ccc(C(=O)Nc2ccc(Br)cc2C)o1`, the fold change (FC) in data set [1] is -0.3. Also, the Kp in data set [2] is 1.32.

Turning to `Cc1cc(C)n(Cc2ccc(C(=O)Nc3ccc(Cl)cc3C(=O)NCc3ccccc3)o2)n1`, the fold change (FC) in data set [1] stood at 2.9. For the same compound, the Kp in data set [2] was 0.166. Taken in the same sequence, the figures for `COc1cc(NC(=O)c2ccc(Cn3nc(C)cc3C)s2)cc(OC)c1` were 0.4 and 0.398. On the same counts, the results for `Cc1cc(C)n(Cc2ccc(C(=O)Nc3ccc(-c4ccccc4)cc3)s2)n1` are 2.8 and 0.398. Take `Cc1cc(C)n(Cc2ccc(C(=O)Nc3cc(F)cc(F)c3)s2)n1`: the fold change (FC) in data set [1] was 5. For the same compound, in data set [2], the Kp was 1. On the same counts, the results for `Cc1cc(C)n(Cc2ccc(C(=O)Nc3ccc(F)c(Cl)c3)s2)n1` are 3.5 and 1.26. With `Cc1cc(C)n(Cc2ccc(C(=O)Nc3ccc(-c4ccccc4)cc3)o2)n1`, the fold change (FC) in data set [1] was 6.7. The Kp in data set [2] is 0.398. In the case of `Cc1cc(C)n(Cc2ccc(C(=O)Nc3ccc(Cl)cc3C)s2)n1`, the fold change (FC) in data set [1] was -0.2. Moreover, the Kp in data set [2] was 1.26. `Cc1cc(C)n(Cc2ccc(C(=O)Nc3ccc(Cl)cc3CO)o2)n1`: the fold change (FC) in data set [1] was 1.1. In addition, the Kp in data set [2] was 0.398. Regarding `Cc1cc(C(F)(F)F)n(Cc2ccc(C(=O)Nc3ccc(Cl)cc3C)o2)n1`, in data set [1], the fold change (FC) was found to be 7.7. For the same compound, the Kp in data set [2] was 1.58. Turning to `O=C(Nc1ccc(Cl)c(Cl)c1)c1ccc(Cn2nc(C(F)(F)F)cc2C(F)(F)F)o1`, the fold change (FC) in data set [1] was determined as 2.9. In addition, in data set [2], the Kp was 3.98. On the same counts, the results for `CCCCNC(=O)c1cc(Cl)ccc1NC(=O)c1ccc(Cn2nc(C)cc2C)o1` are -0.6 and 0.257. Regarding `Cc1cc(C)n(Cc2ccc(C(=O)Nc3ccc(Cl)cc3C(=O)Nc3ccccc3)o2)n1`, the fold change (FC) in data set [1] was found to be 1.2. The Kp in data set [2] was 0.195. Taken in the same sequence, the figures for `Cc1cc(C)n(Cc2ccc(C(=O)Nc3ccc(F)c(C)c3)s2)n1` were 2.4 and 0.794. Taken in the same sequence, the figures for `Cc1cc(Br)ccc1NC(=O)c1ccco1` were -0.2 and 1.41. In the case of `CCc1cc(Br)ccc1NC(=O)c1ccc(Cn2nc(C)cc2C)o1`, in data set [1], the fold change (FC) was determined as 2.6. For the same compound, the Kp in data set [2] was 0.631. As to `Cc1nc2n(c(=O)c1CCN1CCC(c3noc4cc(F)ccc34)CC1)CCCC2`, the outcome in the data set with Mus musculus was Active. With `Cc1cc(C)n(Cc2ccc(C(=O)Nc3ccc4nc[nH]c4c3)s2)n1`, in data set [1], the fold change (FC) was 0.1. Besides, the Kp in data set [2] is 0.158. In the case of `Cc1cc(C)n(Cc2ccc(C(=O)Nc3ccccc3)o2)n1`, the fold change (FC) in data set [1] was found to be 0.1. In data set [2], the Kp was 0.398. On the same counts, the results for `Cc1cc(C)n(Cc2ccc(C(=O)Nc3ccc(F)cc3Cl)o2)n1` are 0.9 and 0.794. For `Cc1cc(C)n(Cc2ccc(C(=O)Nc3ccc4ccccc4c3)s2)n1`, the fold change (FC) in data set [1] came to 1.8. The Kp in data set [2] was 0.631.

On to `Cc1cc(C)n(Cc2ccc(C(=O)Nc3ccccc3-c3ccccc3)o2)n1`, for which the fold change (FC) in data set [1] came out at 0.3. Besides, in data set [2], the Kp was 0.398. Taken in the same sequence, the figures for `Cc1cc(C)n(Cc2ccc(C(=O)Nc3ccc(Cl)cc3C(=O)NCCCCO)o2)n1` were 1.7 and 0.17. On the same counts, the results for `Cc1cc(C)n(Cc2ccc(C(=O)Nc3ccc(Br)cc3)o2)n1` are 1.2 and 0.646. Regarding `COC(=O)c1cc(Br)ccc1NC(=O)c1ccc(Cn2nc(C)cc2C)o1`, in data set [1], the fold change (FC) was 2.7. The Kp in data set [2] was 0.251. On the same counts, the results for `Cc1cc(Br)ccc1NC(=O)c1ccc(Cl)o1` are 1.2 and 2.09.

Turning to `Cc1cc(C)n(Cc2ccc(C(=O)Nc3ccc(Cl)cc3C)o2)n1`, the fold change (FC) in data set [1] stood at 3.2. Further, the Kp in data set [2] is 0.724. `Cc1cc(C)n(Cc2ccc(C(=O)Nc3ccc4ccccc4c3)o2)n1`: in data set [1], the fold change (FC) was found to be 3.2. For the same compound, in data set [2], the Kp is 0.398. With `Cc1cc(C)n(Cc2ccc(C(=O)Nc3ccccc3CCO)o2)n1`, in data set [1], the fold change (FC) is 0.4. The Kp in data set [2] was 0.126.

As to `Cc1cc(C)n(Cc2ccc(C(=O)Nc3ccc4cccnc4c3)s2)n1`, in data set [1], the fold change (FC) came out at 1.1. Also, the Kp in data set [2] was 0.316. Taken in the same sequence, the figures for `Cc1cc(NC(=O)c2ccc(Cn3nc(C(F)(F)F)cc3C(F)(F)F)o2)ccc1F` were 5.5 and 2.51.

Take `COC(=O)c1cc(F)ccc1NC(=O)c1ccc(Cn2nc(C(F)(F)F)cc2C(F)(F)F)o1`: the fold change (FC) in data set [1] was 1.9. In addition, the Kp in data set [2] was 0.794.

With `Cc1cc(C)n(Cc2ccc(C(=O)Nc3ccc(-c4ccccc4)cc3C)s2)n1`, the fold change (FC) in data set [1] was 2.8. Also, the Kp in data set [2] is 0.501.

With `Cc1cc(Cl)ccc1NC(=O)c1ccc(Cn2nc(C(F)(F)F)cc2C(F)(F)F)o1`, the fold change (FC) in data set [1] came to 0.7. Besides, the Kp in data set [2] was 2.51. Taken in the same sequence, the figures for `COc1cc(NC(=O)c2ccc(Cn3nc(C(F)(F)F)cc3C(F)(F)F)o2)cc(OC)c1` were 2.5 and 1.26. Taken in the same sequence, the figures for `Cc1cc(C)n(Cc2ccc(C(=O)Nc3ccccc3C)o2)n1` were 1.2 and 0.49. Taken in the same sequence, the figures for `Cc1cc(C)n(Cc2ccc(C(=O)Nc3ccc(-c4cccnc4)cc3C)s2)n1` were 1.8 and 0.251.

Regarding `Cc1cc(C)n(Cc2ccc(C(=O)Nc3ccc4[nH]c(=O)[nH]c4c3)s2)n1`, the fold change (FC) in data set [1] was determined as 0.3. In addition, the Kp in data set [2] is 0.0251. As to `Cc1cc(C)n(Cc2ccc(C(=O)Nc3ccc(F)cc3C)o2)n1`, the fold change (FC) in data set [1] was found to be 1.9. Besides, the Kp in data set [2] is 0.631. Taken in the same sequence, the figures for `Cc1cc(C)n(Cc2ccc(C(=O)Nc3ccc(Cl)c(F)c3)s2)n1` were 6 and 1.26. On the same counts, the results for `Cc1cc(C)n(Cc2ccc(C(=O)Nc3cccnc3)o2)n1` are 2.9 and 0.251. On to `Cc1cc(C(F)(F)F)n(Cc2ccc(C(=O)Nc3ccc(Br)cc3C)o2)n1`, for which the fold change (FC) in data set [1] worked out at 1.2. In data set [2], the Kp is 1.58. On the same counts, the results for `Cc1cc(C)n(Cc2ccc(C(=O)Nc3cc(Cl)cc(Cl)c3)s2)n1` are 1.2 and 1.26.

With `Cc1cc(C)n(Cc2ccc(C(=O)Nc3ccc(Br)cc3Cl)o2)n1`, in data set [1], the fold change (FC) stood at 1.7. In addition, the Kp in data set [2] was 1.

Take `Cc1cc(F)ccc1NC(=O)c1ccc(Cn2nc(C(F)(F)F)cc2C(F)(F)F)o1`: the fold change (FC) in data set [1] was 2.4. In addition, in data set [2], the Kp is 2.51. For the compound `CCOc1ccc(NC(=O)c2ccc(Cn3nc(C)cc3C)s2)cc1OCC`, the fold change (FC) in data set [1] came out at 2.7. Further, in data set [2], the Kp was 0.251. With `Cc1cc(C)n(Cc2ccc(C(=O)Nc3ccc(Cl)cc3C(=O)NCCCO)o2)n1`, in data set [1], the fold change (FC) was 2.9. For the same compound, in data set [2], the Kp is 0.0331. On the same counts, the results for `COC(=O)c1cc(Cl)ccc1NC(=O)c1ccc(Cn2nc(C)cc2C)o1` are 0.1 and 0.158.

`COC(=O)c1cc(F)ccc1NC(=O)c1ccc(Cn2nc(C)cc2C)o1`: in data set [1], the fold change (FC) worked out at 1.5. The Kp in data set [2] is 0.158. On the same counts, the results for `CNc1ccccc1NC(=O)c1ccc(Cn2nc(C)cc2C)o1` are 0.8 and 0.316. Taken in the same sequence, the figures for `Cc1cc(Br)ccc1NC(=O)c1ccc(Cn2nc(C(F)(F)F)cc2C(F)(F)F)o1` were 10.7 and 2.51. On to `Cc1cc(C)n(Cc2ccc(C(=O)Nc3ccc(Cl)cc3Cl)o2)n1`, for which the fold change (FC) in data set [1] stood at 4.7. In data set [2], the Kp is 1.

For `Cc1cc(C)n(Cc2ccc(C(=O)Nc3ccc4cnccc4c3)s2)n1`, the fold change (FC) in data set [1] is -0.2. The Kp in data set [2] is 0.316.
